Results as given in patent US11795510B2, “Identification of epigenomic reprogramming in cancer and uses thereof” (The Johns Hopkins University, priority 2016, dated 2023).
“Also recorded” adds a separate entry of the source.

Experiments:
Assay type in all cases: cell-based, human
[1] = test system: distant metastatic subclones; assay: Glucose-dependent oxidative stress analysis (viable cell counts), distant metastatic subclones; conditions: 1 mM H2O2, 24h, glucose not present in the media
Method: (§1) Tissue samples and cell lines were previously collected from PDAC patients by rapid autopsy, sequenced-validated, and monitored for mycoplasma as previously described. Low passage (2-17) rapid autopsy cell lines were cultured at 37° C. in DMEM with 10% fetal bovine serum (FBS, Gibco). For MTT assays, 15,000 cells/well were plated into 96 well plates in triplicate, treated 12 hours later, and assayed after 24 hr (glucose responses) or 6 days (chemotherapy) with CellTiter96 (Promega). For glucose response assays, nutrient-deplete DMEM (no glucose, glutamine, pyruvate, or serum) was used with addition of glucose as indicated. For glucose-dependent oxidative stress analysis, cells plated in triplicate and grown to 80% confluence followed by incubation in nutrient-deplete DMEM containing 10% dialyzed FBS with or without 10 mM glucose and 1 mM H2O2 for 24 hours. Cells were then washed with PBS, trypsinized, and viable cells counted with a hemocytometer. Glucose uptake and lactate secretion were measured with a YSI 7100 Bioanalyzer as described in the supplementary methods. For ^13C-1,2 glucose tracing and steady state metabolite profiling, the Q Exactive MS (QE-MS; Thermo Scientific) coupled to liquid chromatography (LC Ultimate 3000 UHPLC) was used for metabolite separation and detection as previously described. Detailed conditions are provided in the supplementary methods.

[2] = test system: local-regional PDAC samples; assay: Glucose-dependent oxidative stress analysis (viable cell counts), local-regional PDAC; conditions: 1 mM H2O2, 24h, with or without 10 mM glucose
Method: as §1

[3] = test system: normal HPDE cells; assay: Glucose-dependent oxidative stress analysis (viable cell counts), HPDE; conditions: 1 mM H2O2, 24h, with or without 10 mM glucose
Method: as §1

[4] = test system: A38Lg compared to A38Per; assay: MTT cell viability assay
Method: as §1

[5] = test system: global chromatin modifications in peritoneal subclone (A38Per), normal cells (HPDE, fibroblast) and local-regional PDACs; assay: Western blots of histone modifications, peritoneal subclone, normal cells and local-regional PDACs; conditions: peritoneal subclone
Method: Histones were acid extracted as described and western blots performed on 3.5 ug histones, which were checked by Ponceau stains prior to western blot to ensure equal loading. Densitometry was performed with ImageJ software. RNA was extracted with Trizol reagent (Life Technologies) and isopropanol precipitated. Genomic DNA was purified with MasterPure DNA extraction reagents (Epicenter). Immunohistochemistry, H&E staining, and immunofluorescence on formalin-fixed, paraffin-embedded (FFPE) tissue microarray sections (TMAs) were performed according to standard procedures.
RNAi experiments were performed with siRNA transfections (Oligofectamine, Life Technologies) using negative control siRNA (Sigma, SIC001) and pre-designed siRNA oligonucleotides against indicated genes in parallel (Sigma, PGD: SASI_Hs02 00334150, CDH2: SASI_Hs01_00153995, TOP2B: SASI_Hs02_00311874). siRNAs against mutant KRAS^G12V (CUACGCCAACAGCUCCAAC) (SEQ ID NO:1) were custom designed. Cells were incubated with siRNAs for 4 days after transfection and harvested. For drug treatments in 2-D, cells were grown to 70-80% confluency and treated for 3 days with 250 uM 6AN or DMSO negative control.

Row | Structure (SMILES) | normalized cell counts after H2O2 [1] | normalized cell counts after H2O2 [2] | normalized cell counts after H2O2 [3] | cell viability (MTT) under H2O2-mediated oxidative stress [4] | induction of loss of methylation or gain of acetylation (reprogrammed histone modifications) by chemotherapy [5] | cell viability (MTT) under gemcitabine ([4]; assayed after 6 days)
1 | OO [H2O2] | sensitive to H2O2 when glucose was not present | resistant to H2O2 irrespective of glucose availability | sensitive to H2O2 under either glucose condition | highly resistant; also recorded: remarkably resistant |  | 
2 | Nc1ccn([C@@H]2O[C@H](CO)[C@@H](O)C2(F)F)c(=O)n1 [gemcitabine, Gemcitabine] |  |  |  |  | did not induce | highly resistant; also recorded: completely resistant
